Reference: patent US7824691B2 (priority 2005, dated 2010)
Ends that are not written are not given here.

Assays:
[1] = Toxicity in supplementary treated groups without challenge; assay type: in vivo, BALB/c male mice; settings: supplementary treated groups without previous infection
TNF-α plasma levels = assay: Murine sepsis model 2, heat-killed S. aureus challenge, plasma TNF-α; assay type: in vivo, BALB/c male mice
Method: (§1) Heat-killed S. aureus were prepared by boiling for 10 min and sonicating a bacterial suspension for 1 min in phosphate buffered saline containing approximately 2.5×10^9 cells/mL.
(§2) Implantation of inoculum: All animals were anesthetized by an intramuscular injection of ketamine (30 mg/kg of body weight). Mice were injected intravenously (i.v.) via the tail vein with 0.2 mL of the above mentioned bacterial suspensions: (i) 2.0×10^6 CFU of S. aureus ATCC 25923 (model 1), or (ii) 5.0×10^8 heat-killed cells (model 2) on day 0 and monitored for 72 hours.
(§3) Antibiotic therapy. […] Each group included 20 mice. The animals were returned to individual cages and monitored for the subsequent 72 hours. The endpoints of the study were lethality rates (model 1), quantitative blood cultures (bacteremia, model 1), and TNF-α or IL-6 plasma levels (model 2).
(§4) Plasma TNF-α and IL-6 levels. […] TNF-α levels were measured with a solid phase sandwich enzyme-linked immunosorbent assay (ELISA). The intensity of the color was measured in a MR 700 Microplate Reader (Dynatech Laboratories, Guernsey, United Kingdom) by reading the absorbance at 450 nm. […] The plasma concentrations of IL-6 were also determined by ELISA, as described above. Quantification was performed on the basis of a standard curve. […]

S. aureus ATCC 25923 = assay: Murine sepsis model 1, live S. aureus i.v. challenge (lethality, bacteremia); assay type: in vivo, BALB/c male mice; settings: for Lethality (%) / Lethality (dead/total): monitored 72 h; for Qualitative Blood Culture (positive/total) / Quantitative Blood Culture (CFU/ml), mean ± S.D.: blood 24 h after challenge
Method: Animals: BALB/c male mice weighing 23 to 30 g were used for all the experiments. All animals were housed in individual cages under constant temperature (22° C.) and humidity with a 12 hour light/dark cycle and had access to food and water ad libitum throughout the study. The study was approved by the animal research ethics committee of the I.N.R.C.A.-I.R.R.C.S., Polytechnic University of Marche, Ancona, Italy.
Preparation of the inoculum: S. aureus ATCC 25923 were grown overnight at 37° C. in brain-heart infusion broth. When bacteria were in the log phase of growth the suspension was centrifuged at 1000× g for 15 min, the supernatant was discarded, and the bacteria were resuspended in sterile saline to achieve a concentration of approximately 1×10^7 CFU/mL.
as §2, §3
Evaluation of treatment: Blood samples for culture were obtained from the tail vein by aseptic percutaneous puncture 24 h after bacterial challenge. The animals that died before this time were not tested. To perform quantitative bacterial cultures, blood samples were serially diluted, a 0.1 mL volume of each dilution was spread on blood agar plates and cultured at 35° C. for 48 h, and colony forming units (CFU) were counted. The limit of detection was <10 CFU/mL.
Statistical analysis: Lethality rates between groups were compared by use of Fisher's exact test. Data from quantitative blood cultures were presented as means±standard deviations (SDs) of the mean; statistical comparisons between groups were made by analysis of variance. Post hoc comparisons were performed by Bonferroni's test. Plasma IL-6 and TNF-α mean values were compared between groups by analysis of variance. Significance was accepted when the p value was <0.05.

IL-6 plasma levels = assay: Murine sepsis model 2, heat-killed S. aureus challenge, plasma IL-6; assay type: in vivo, BALB/c male mice
Method: as §1, §2, §3, §4

RAW264.7 cells [2] = assay: LTA-induced TNF-α production by RAW264.7 cells (ELISA); assay type: cell-based, murine; settings: 20 μg/mL inactive RIP peptide analogue; data not shown
Method: (§5) Cytokine production by RAW 264.7 cells: The murine macrophage cell line RAW264.7 was obtained from American Type Culture Collection (ATCC) and maintained in RPMI supplemented with 10% fetal calf serum (FCS), 2 mM L-glutamine, 100 units/mL penicillin and 100 μg/mL streptomycin in a humidified 37° C. incubator. RAW264.7 cells were plated in 24-well dishes at 10^6 cells/well in the above medium and incubated at 37° C. in 5% CO2 overnight. RPMI was aspirated from cells grown overnight and replaced with fresh medium. […] Peptides were added simultaneously with LTA. After 24 hours incubation, the supernatants were removed and tested for TNF-α production by enzyme linked immunosorbent assay (ELISA; Euroclone Life Sciences, Milan, Italy) according to the manufacturer's specification. All samples were run in duplicate. The detection limit for TNF-α was <0.025 ng/mL.

RAW264.7 cells [3] = assay: LTA-stimulated NO production by RAW264.7 cells (Griess reagent); assay type: cell-based, murine; settings: 20 μg/mL inactive RIP peptide analogue; data not shown
Method: as §5
Nitric oxide (NO) detection: RAW264.7 cells were cultured as described above. The amount of LTA-stimulated production of NO in the supernatant over 24 hours was estimated from the accumulation of the stable NO metabolite nitrite with Griess reagent (Molecular Probes, Eugene, Oreg.) according to the manufacturer's instructions.

[4] = model 1a: i.v. treatment immediately after challenge
[5] = model 1a: treatment immediately after challenge
[6] = model 1b: i.v. treatment 6 h (360 min) after challenge
[7] = model 1b: treatment 6 h after challenge

Compound | changes in physiological parameters [1] | drug-related adverse effects [1] | Lethality (%) (S. aureus ATCC 25923; [4]) | Quantitative Blood Culture (CFU/ml), mean ± S.D. (S. aureus ATCC 25923; [5]) | Lethality (%) (S. aureus ATCC 25923; [6]) | Quantitative Blood Culture (CFU/ml), mean ± S.D. (S. aureus ATCC 25923; [7]) | other results
YSPWTNF-NH2 [RIP, YSPWTNF-NH2] | no changes in physiological parameters | none of the animals had clinical evidence of drug-related adverse effects |  |  |  |  | 
CN[C@H](CC(C)C)C(=O)N[C@H]1C(=O)N[C@@H](CC(N)=O)C(=O)N[C@H]2C(=O)N[C@H]3C(=O)N[C@H](C(=O)N[C@H](C(=O)O)c4cc(O)cc(O)c4-c4cc3ccc4O)[C@H](O)c3ccc(c(Cl)c3)Oc3cc2cc(c3O[C@@H]2O[C@H](CO)[C@@H](O)[C@H](O)[C@H]2O[C@H]2C[C@](C)(N)[C@H](O)[C@H](C)O2)Oc2ccc(cc2Cl)[C@H]1O [vancomycin] |  |  | 20 | 7.8±1.8×10^1 CFU/ml | 20 | 9.0 ± 2.8 × 10^1deg CFU/ml | TNF-α plasma levels (TNF-α plasma levels; model 2a: drugs at 0 min after heat-killed cell challenge, FIG. 3A): No substantial differences; plasma TNF-α concentrations (TNF-α plasma levels; model 2b: drugs 360 min after heat-killed bacterial challenge, FIG. 3B): constant increase; Lethality (dead/total) (S. aureus ATCC 25923; [4]): 4/20; Qualitative Blood Culture (positive/total) (S. aureus ATCC 25923; [5]): 5/20^df; Quantitative Blood Culture (CFU/ml), mean ± S.D. (S. aureus ATCC 25923; model 1a: treatment immediately after challenge, listed as VAN): 7.8 ± 1.8 × 10^1deg CFU/ml; Lethality (dead/total) (S. aureus ATCC 25923; [6]): 4/20; Qualitative Blood Culture (positive/total) (S. aureus ATCC 25923; [7]): 5/20^df; IL-6 plasma levels (IL-6 plasma levels; model 2a: drugs at 0 min after heat-killed cell challenge, FIG. 4A): No substantial differences; plasma IL-6 concentrations (IL-6 plasma levels; model 2b: drugs 360 min after heat-killed bacterial challenge, FIG. 4B): constant increase
GGLRSLGRKILRAWKKYGPIIVPIIRI-NH2 [BMAP-28] | no changes in physiological parameters | none of the animals had clinical evidence of drug-related adverse effects |  |  |  |  | 
YKPETNF-NH2 [inactive RIP peptide analogue] |  |  |  |  |  |  | decrease of LTA-induced TNF-α (RAW264.7 cells [2]): did not demonstrate decrease; decrease of LTA-stimulated NO (RAW264.7 cells [3]): did not demonstrate decrease
C[C@@H](O)[C@H]1C(=O)N2C(C(=O)O)=C(SCCN=CN)C[C@H]12 [imipenem] |  |  | 30 | 5.8 ± 1.4 × 10^2de CFU/ml | 35 | 7.1 ± 1.7 × 10^2de CFU/ml | 
